Assay results reported in patent publication US8440830B2, “Tetrahydro-fused pyridines as histone deacetylase inhibitors” (4SC AG, priority 2007, dated 2013).

Test system: A549 NSCLC cells
Assay: Cellular cytotoxicity assay (Alamar Blue), A549
Format: cell-based
Details: Homo sapiens, 72 h, upper end given as ≧100, read-out: IC50 (μM), cytotoxicity towards A549 NSCLC cells
Experimental: The anti-proliferative activity of the histone deacetylase inhibitory compounds as described herein, is evaluated using the following cell lines: HeLa and HeLa-KB (cervical carcinoma), H460 (non small cell lung cancer), A549 (non-small cell lung cancer), MCF7 (breast carcinoma), MCF10A (normal, non tumorigenic breast epithelial), MDA-MB468 (breast carcinoma), MDA-MB435 (breast carcinoma), MDA-MB231 (breast carcinoma), SKBR-3 (breast carcinoma), SKOV-3 (ovarial carcinoma), A-2780 (ovarial carcinoma), RKO (colon carcinoma), HCT-15 (colon carcinoma), HCT-116 (colon carcinoma), PC3 (prostate carcinoma), BPH1 (benign prostate hyperplasia), AsPC1 (pancreatic carcinoma), Ca127 (tongue carcinoma), A-431 (vulva carcinoma), Hec1A (endometrial carcinoma), Saos-2 (osteosarcoma), U87MG (glioblastoma), WM266-4 (melanoma), K562 (chronic myeloid leukemia), EOL1 (acute hypereosinophilic myeloid leukemia), CCRF-CEM and CCRF-CEM VCR1000 (acute lymphoblastic leukemia sensitive and resistant towards Vincristine). For quantification of cellular proliferation/living cells the Alamar Blue (Resazurin) cell viability assay is applied (O'Brien et al. Eur J Biochem 267, 5421-5426, 2000). In this assay Resazurin is reduced to the fluorescent resorufine by cellular dehydrogenase activity, correlating with viable, proliferating cells. The examples are dissolved as 20 mM solutions in dimethylsulfoxide (DMSO) and subsequently diluted in semi-logarithmic steps. Cell lines are seeded at respective density into 96 well flat bottom plates in a volume of 200 μl per well. 24 h after seeding 1 μl each of the compound dilutions are added into each well of the 96 well plate. Each compound dilution is tested as quadruplicates. Wells containing untreated control cells are filled with 200 μl DMEM medium containing 0.5% v:v DMSO. The cells are then incubated with the compounds for 72 h at 37° C. in a humidified atmosphere containing 5% carbon dioxide. To determine the viability of the cells, 20 μl of a Resazurin solution (Sigma; 90 mg/l) are added. After 4 h incubation at 37° C. the fluorescence is measured at an extinction of λ=544 nm and an emission of λ=590 nm. For the calculation of the cell viability the emission value from untreated cells is set as 100% viability and the emission rates of treated cells are set in relation to the values of untreated cells. Viabilities are expressed as % values. The corresponding IC50 values of the compounds for cytotoxic activity are determined from the concentration-effect curves by means of non-linear regression.

| SMILES | IC50 |
| --- | --- |
| COc1ccc(NC(=S)N2CCc3nc(C(=O)Nc4cc(C(C)C)ccc4N)sc3C2)cc1 [Example 110, N-(2-amino-5-isopropylphenyl)-5-{[(4-methoxyphenyl)amino]carbonothioyl}-4,5,6,7-tetrahydro[1,3]thiazolo[5,4-c]pyridine-2-carboxamide] | ≥ 0.2 µM |
| Nc1ccccc1NC(=O)c1nc2c(s1)CN(C(=O)Oc1ccc3ccccc3c1)CC2 [Example 185, 2-naphthyl 2-[(2-aminophenyl)carbamoyl]-6,7-dihydro[1,3]thiazolo[5,4-c]-pyridine-5(4H)-carboxylate] | ≥ 0.2 µM |
| COc1ccc(N)c(NC(=O)c2nc3c(s2)CN(C(=O)C(=O)Nc2ccc(OC)c(OC)c2)CC3)c1 [Example 82, N-(2-amino-5-methoxyphenyl)-5-{[(3,4-dimethoxyphenyl)amino](oxo)acetyl}-4,5,6,7-tetrahydro[1,3]thiazolo[5,4-c]pyridine-2-carboxamide] | ≥ 0.2 µM |
| Cc1ccc(C(=O)N2CCc3nc(C(=O)Nc4ccccc4N)sc3C2)cc1 [Example 89, N-(2-aminophenyl)-5-(4-methylbenzoyl)-4,5,6,7-tetrahydro[1,3]thiazolo[5,4-c]pyridine-2-carboxamide] | ≥ 0.2 µM |
| CCCCNC(=C[N+](=O)[O-])N1CCc2nc(C(=O)Nc3ccccc3N)sc2C1 [Example 138, N-(2-aminophenyl)-5-[1-(butylamino)-2-nitrovinyl]-4,5,6,7-tetrahydro[1,3]thiazolo[5,4-c]pyridine-2-carboxamide] | ≥ 0.2 µM |
| COc1ccc(N)c(NC(=O)c2nc3c(s2)CN(C(C)=Nc2ccccc2)CC3)c1 [Example 129, N-(2-amino-5-methoxyphenyl)-5-[N-phenylethanimidoyl]-4,5,6,7-tetrahydro[1,3]thiazolo[5,4-c]pyridine-2-carboxamide] | ≥ 0.2 µM |
| COc1ccc(NC(=O)N2CCc3nc(C(=O)Nc4cc(OC)ccc4N)sc3C2)cc1 [Example 43, N^2-(2-amino-5-methoxyphenyl)-N^5-(4-methoxyphenyl)-6,7-dihydro[1,3]thiazolo[5,4-c]pyridine-2,5(4H)-dicarboxamide] | ≥ 0.2 µM |
| Nc1ccccc1NC(=O)c1nc2c(s1)CN(C(=O)Nc1ccc(OC(F)(F)F)cc1)CC2 [Example 9, N^2-(2-aminophenyl)-N5-[4-(trifluoromethoxy)phenyl]-6,7-dihydro[1,3]thiazolo[5,4-c]pyridine-2,5(4H)-dicarboxamide] | ≥ 0.2 µM |
| COc1ccc(N)c(NC(=O)c2nc3c(s2)CN(C(=O)Nc2ccc(N(C)C)cc2)CC3)c1 [Example 47, N^2-(2-amino-5-methoxyphenyl)-N^5-[4-(dimethylamino)phenyl]-6,7-dihydro-[1,3]thiazolo[5,4-c]pyridine-2,5(4H)-dicarboxamide] | ≥ 0.2 µM |
| Nc1ccccc1NC(=O)c1nc2c(s1)CN(C(=O)Nc1cccc3cnccc13)CC2 [Example 62, N^2-(2-aminophenyl)-N^5-isoquinolin-5-yl-6,7-dihydro[1,3]thiazolo[5,4-c]pyridine-2,5(4H)-dicarboxamide] | ≥ 0.2 µM |
| CC(C)c1ccc(NC(=C[N+](=O)[O-])N2CCc3nc(C(=O)Nc4cc(C(C)C)ccc4N)sc3C2)cc1 [Example 148, N-(2-amino-5-isopropylphenyl)-5-{1-[(4-isopropylphenyl)amino]-2-nitrovinyl}-4,5,6,7-tetrahydro[1,3]thiazolo[5,4-c]pyridine-2-carboxamide] | ≥ 0.2 µM |
| CN(C)c1cccc(N(C)C(=O)N2CCc3nc(C(=O)Nc4ccccc4N)sc3C2)c1 [Example 23, N^2-(2-aminophenyl)-N^5-[3-(dimethylamino)phenyl]-N^5-methyl-6,7-dihydro-[1,3]-thiazolo[5,4-c]pyridine-2,5(4H)-dicarboxamide] | ≥ 0.2 µM |
| Nc1ccccc1NC(=O)c1nc2c(s1)CN(S(=O)(=O)Cc1ccccc1)CC2 [Example 151, N-(2-aminophenyl)-5-(benzylsulfonyl)-4,5,6,7-tetrahydro[1,3]thiazolo[5,4-c]pyridine-2-carboxamide] | ≥ 0.2 µM |
| COc1ccc(NC(=O)N2CCc3nc(C(=O)Nc4cc(N(C)C)ccc4N)sc3C2)cc1 [Example 53, N^2-[2-amino-5-(dimethylamino)phenyl]N^5-(4-methoxyphenyl)-6,7-dihydro[1,3]thiazolo[5,4-c]pyridine-2,5(4H)-dicarboxamide] | ≥ 0.2 µM |
| COc1ccc(NC(=O)C(=O)N2CCc3nc(C(=O)Nc4cc(C(C)C)ccc4N)sc3C2)cc1 [Example 81, N-(2-amino-5-isopropylphenyl)-5-{[(4-methoxyphenyl)amino](oxo)acetyl}-4,5,6,7-tetrahydro[1,3]thiazolo[5,4-c]pyridine-2-carboxamide] | ≥ 0.2 µM |
| Nc1ccccc1NC(=O)c1nc2c(s1)CN(C(=O)C(=O)Nc1ccc(OC(F)(F)F)cc1)CC2 [Example 72, N-(2-aminophenyl)-5-(oxo{[4-(trifluoromethoxy)phenyl]amino}acetyl)-4,5,6,7-tetrahydro[1,3]thiazolo[5,4-c]pyridine-2-carboxamide] | ≥ 0.2 µM |
| CN(C)c1ccc(C(=O)N2CCc3nc(C(=O)Nc4ccccc4N)sc3C2)cc1 [Example 91, N-(2-aminophenyl)-5-[4-(dimethylamino)benzoyl]-4,5,6,7-tetrahydro[1,3]thiazolo[5,4-c]pyridine-2-carboxamide] | ≥ 0.2 µM |
| COc1ccc(NC(=O)C(=O)N2CCc3nc(C(=O)Nc4ccccc4N)sc3C2)cc1OC [Example 66, N-(2-aminophenyl)-5-{[(3,4-dimethoxyphenyl)amino](oxo)acetyl}-4,5,6,7-tetrahydro[1,3]thiazolo[5,4-c]pyridine-2-carboxamide] | ≥ 0.2 µM |
| COc1ccc(N(C)C(=O)N2CCc3nc(C(=O)Nc4ccccc4N)sc3C2)cc1OC [Example 24, N^2-(2-aminophenyl)-N^5-(3,4-dimethoxyphenyl)-N^5-methyl-6,7-dihydro[1,3]-thiazolo[5,4-c]pyridine-2,5(4H)-dicarboxamide] | ≥ 0.2 µM |
| CN(C)c1ccc(NC(=NC#N)N2CCc3nc(C(=O)Nc4ccccc4N)sc3C2)cc1 [Example 120, N-(2-aminophenyl)-5-[(cyanoimino){[4-(dimethylamino)phenyl]amino}methyl]-4,5,6,7-tetrahydro[1,3]thiazolo[5,4-c]pyridine-2-carboxamide] | ≥ 0.2 µM |
| CC(C)c1ccc(N)c(NC(=O)c2nc3c(s2)CN(C(=C[N+](=O)[O-])Nc2ccc(N(C)C)cc2)CC3)c1 [Example 147, N-(2-amino-5-isopropylphenyl)-5-[1-{[4-(dimethylamino)phenyl]amino}-2-nitrovinyl]-4,5,6,7-tetrahydro[1,3]thiazolo[5,4-c]pyridine-2-carboxamide] | ≥ 0.2 µM |
| COc1ccc(NC(=O)C(=O)N2CCc3nc(C(=O)Nc4cc(OC)ccc4N)sc3C2)cc1 [Example 78, N-(2-amino-5-methoxyphenyl)-5-{[(4-methoxyphenyl)amino](oxo)acetyl}-4,5,6,7-tetrahydro[1,3]thiazolo[5,4-c]pyridine-2-carboxamide] | ≥ 0.2 µM |
| COCCN(C)C(=O)N1CCc2nc(C(=O)Nc3ccccc3N)sc2C1 [Example 20, N^2-(2-aminophenyl)-N^5-(2-methoxyethyl)-N^5-methyl-6,7-dihydro[1,3]thiazolo[5,4-c]pyridine-2,5 (41:1)-dicarboxamide] | ≥ 0.2 µM |
| COc1ccc(NC(=O)N2CCc3nc(C(=O)Nc4cc(C(C)C)ccc4N)sc3C2)cc1 [Example 45, N^2-(2-amino-5-isopropylphenyl)-N^5-(4-methoxyphenyl)-6,7-dihydro[1,3]thiazolo[5,4-c]pyridine-2,5(4H)-dicarboxamide] | ≥ 0.2 µM |
